Assay results as given in US20150320823A1, “NOVEL USE OF RICE, RICE BRAN OR RICE HULL EXTRACT AS AN HISTAMINE RECEPTOR ANTAGONIST” (KOREA FOOD RESEARCH INSTITUTE, priority 2011, published 2015).

System: GABAA-benzodiazepine receptor
Assay: Sleep-improving mechanism: pentobarbital sleep test with GABAA-benzodiazepine antagonist flumazenil (FLU)
Format: in vivo
Conditions: mouse; FLU 8 mg/kg i.p. 10 min before sample p.o. (DZP 0.5 mg/kg; BEE 500 mg/kg); pentobarbital 45 mg/kg 45 min later

For `CN1C(=O)CN=C(c2ccccc2)c2cc(Cl)ccc21` [DZP, diazepam], the “effect of flumazenil (FLU) on the sleep-improving effect (sleep latency, sleep duration)” value was “had an effect”.
